One molecule from patent publication US7285564B2, “Substituted 4-amino-1-(pyridylmethyl)piperidine and related compounds” (Theravance, Inc., priority 2002, dated 2007) can be followed below.

The subject of assay [1] is volume-induced bladder contractions. Nature of the assay: In vivo rat bladder assay. Conditions: intravenous; anesthetized female Sprague-Dawley rats; normalized to atropine response. As for the experimental part:
Female Sprague-Dawley rats (Harlan, Indianapolis, Ind.) weighing 200 to 300 g were anesthetized with urethane (1.5 g/kg, s.c., Sigma, St. Louis, Mo.), with a supplement of 0.25 g/kg, s.c. urethane as needed. Urethane was administered at a concentration of 0.25 g/mL.
Rats were prepared for surgery by shaving the neck and abdomen and cleansing with ethanol wipes. First, an incision was made on the ventral surface. An intravenous catheter was placed by isolating and ligating the femoral vein. […]
Thereafter, an intravenous dose of the test compound was administered and changes in VIBCAmp were recorded for 15 minutes. Atropine (0.1 mg/kg) was then administered intravenously (1 mL/kg) as a positive control and VIBCAmp and data was recorded for an additional 15 minutes. […]
Alternatively, after the vehicle, increasing cumulative intravenous doses of the test compound were administered at 15 minute intervals (1 mL/kg) and changes in VIBCAmp were recorded for 15 minutes. […]
The average VIBCAmp during the 5-15 minute period after test compound and atropine was determined and subtracted from the average VIBCAmp during the 5-15 minute post-vehicle period to obtain the test compound or atropine-induced change in VIBCAmp. […]

Assay [2] concerns oxotremorine-induced salivation. As to the kind of experiment: In vivo rat salivation assay. The procedure: Female Sprague-Dawley rats weighing 200 to 300 g were anesthetized with urethane (1.5 g/kg, s.c., Sigma, St. Louis, Mo.), with a supplement of 0.25 g/kg, s.c. urethane as needed. Urethane was administered at a concentration of 0.25 g/mL.
Rats were placed on a heated blanket on their dorsal side in an inclined position (20° angle) position (head down). A swab was placed in the rat's mouth. The test compound or vehicle was administered intravenously via the tail vein. After 5 min., oxotremorine (1.0 mg/kg) was administered subcutaneously. The swab was discarded and
Replaced by a pre-weighed swab. Saliva was then collected for 10 min. and then the swab was removed and re-weighed to determine the output of saliva. Dose-response curves were fitted with a four parameter logistic equation to obtain estimates of ID50 (dose required to produce 50% of the maximal response).
By comparing the ID50 values determined in the rat bladder assay and rat salivation assay, the in vivo bladder/salivation selectivity ratio was calculated for the compounds tested.

`COc1ccncc1CN1CCC(N(CCCCCCCN2CC[C@@H](C(C(N)=O)(c3ccccc3)c3ccccc3)C2)C(C)C)CC1` [Example 1]: the “ID50 (volume-induced bladder contraction amplitude)” value in assay [1] is “less than or equal to 0.1 mg/kg”. Besides, in assay [2] (intravenous, anesthetized female Sprague-Dawley rats, oxotremorine 1.0 mg/kg s.c.), the “ID50 (salivation)” value is given as “greater than or equal to 0.9 mg/kg”. Moreover, the “ID50 bladder/salivation selectivity ratio” value in assay [2] (rat bladder assay vs rat salivation assay) is “greater than 20”.
